The test system of assay [1] is DOCA-salt hypertensive rats. Put plainly: Antihypertensive effect in DOCA-salt hypertensive rats. The format is in vivo. The settings on record: DOCA-salt hypertensive rat model; 30 mg/kg p.o., administered in PEG 400. The procedure:
The antihypertensive effect can be determined in desoxycorticosterone acetate (DOCA)-salt hypertensive rats.
DOCA-salt hypertensive rats (280-380 g) are prepared by the standard method. Rats underwent a unilateral nephrectomy and one week later are implanted with silastic pellets containing 100 mg/kg of DOCA. The rats are maintained on 1% NaCl/0.2% KCl drinking water for three to five weeks until sustained hypertension is established. The antihypertensive activity is evaluated at this time.
Two days before an experiment, the rats are anesthetized with methoxyflurane and instrumented with catheters in the femoral artery to measure arterial blood pressure. Forty-eight hours later, baseline arterial pressure and heart rate are recorded during a 1 hour period. The test compound (30 mg/kg p.o.) or vehicle is then administered and the same cardiovascular parameters are monitored for an additional 5 hours.

Assay [2] has as its system rat plasma ANF concentration. The experiment in a line: Effect on rat plasma ANF concentration (ANF-infused conscious rats, radioimmunoassay). The format is in vivo. The settings on record: doses of about 1-30 mg/kg p.o., administered in 10% ethanol/PEG 400, ANF infusion 450 ng/kg/min i.v. The method, then: The effect of the compounds of the invention on rat plasma ANF concentration can be determined as follows:
Male Sprague-Dawley rats (275-390 g) are anesthetized -with ketamine (150 mg/kg)/acepromazine (10%) and instrumented with catheters in the femoral artery and vein to obtain blood samples and infuse ANF. respectively. The rats are tethered with a swivel system and are allowed to recover for 24 hours before being studied in the conscious, unrestrained state.
In this assay, plasma ANF levels are determined in the presence and absence of NEP inhibition. On the day of study, all rats are infused continuously with ANF at 450 ng/kg/min. i.v. for the entire 5 hours of the experiment. Sixty minutes after beginning the infusion, blood samples for baseline ANF measurements are obtained (time 0) and the rats are then randomly divided into groups treated with the test compound or vehicle. Additional blood samples are taken 30, 60, 120, 180 and 240 minutes after administration of the test compound.
Plasma concentrations are determined by a specific radioimmunoassay. […] The supernatant is decanted and the pellets counted in a gamma counter. […] Plasma ANF levels are expressed as a percent of those measured in vehicle-treated animals which received ANF alone (450 ng/kg/min i.v.).

With `CCOC(=O)[C@H](C)C[C@@H](Cc1ccc(-c2ccccc2)cc1)NC(=O)CCC(=O)O` [N-(3-carboxy-1-oxopropyl)-(4S)-(p-phenylphenylmethyl)-4-amino-2R-methylbutanoic acid ethyl ester], the blood pressure result in assay [1] is on record as “significant reduction in blood pressure”. The “plasma ANF levels” value in assay [2] is listed as “significant increases in plasma ANF levels”.
